The values below come from patent US10494363B2, “Non-steroidal glucocorticoid receptor modulators for local drug delivery” (LEO PHARMA A/S, priority 2015, dated 2019).

Data set [1] in a line: Human liver microsomes (HLM) assay. Format: in vitro ADME. The note with it: hepatic extraction ratio; 0.5 μM compound, 0.5 mg/mL microsomes, NADPH, 37° C. The method, boiled down:
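Compound at 0.5 μM incubated at 37° C. with human liver microsomes (0.5 mg/mL) and NADPH (1 mM) in phosphate buffer pH 7.4, 1% organic solvent; sampled 0-30 minutes. Clapp (mL/min/kg) and Eh (%) derived from depletion rate constant.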
Background: Liver microsomes are vesicles of endoplasmic reticulum, rich in cytochrome P450 enzymes.

Data set [2] addresses T1, glucocorticoid receptor (GR), recombinant full-length receptor protein (Homo sapiens, UniProt P04150).
T1 construct: 4 nM recombinant, full-length receptor protein was incubated with increasing concentrations of GR ligand; purchased Life Technologies A-15897
T1 sequence (P04150 1-777): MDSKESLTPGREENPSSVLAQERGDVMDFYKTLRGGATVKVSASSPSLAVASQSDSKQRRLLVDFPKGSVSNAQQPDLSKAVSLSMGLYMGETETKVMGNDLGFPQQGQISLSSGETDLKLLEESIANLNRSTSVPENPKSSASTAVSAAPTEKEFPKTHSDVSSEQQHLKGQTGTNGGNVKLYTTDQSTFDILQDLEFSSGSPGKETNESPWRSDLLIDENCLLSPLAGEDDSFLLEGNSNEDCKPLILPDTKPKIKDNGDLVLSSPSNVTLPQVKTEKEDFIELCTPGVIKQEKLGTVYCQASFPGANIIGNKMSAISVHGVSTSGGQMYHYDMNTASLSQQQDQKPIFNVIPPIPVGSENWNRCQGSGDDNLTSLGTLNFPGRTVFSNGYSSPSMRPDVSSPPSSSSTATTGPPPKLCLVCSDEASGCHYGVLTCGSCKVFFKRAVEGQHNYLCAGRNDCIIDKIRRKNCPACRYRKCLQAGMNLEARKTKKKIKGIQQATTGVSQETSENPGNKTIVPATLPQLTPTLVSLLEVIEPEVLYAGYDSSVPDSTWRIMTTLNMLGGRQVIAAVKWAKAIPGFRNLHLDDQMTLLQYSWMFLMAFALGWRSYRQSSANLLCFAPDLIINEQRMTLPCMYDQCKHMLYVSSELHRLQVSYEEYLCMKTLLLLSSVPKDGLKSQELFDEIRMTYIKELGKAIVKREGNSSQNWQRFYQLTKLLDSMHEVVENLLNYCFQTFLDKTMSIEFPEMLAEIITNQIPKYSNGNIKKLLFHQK
The data set can be described thus: Glucocorticoid receptor binding assay (fluorescence polarization kit). The note with it: 4 nM receptor, 2.5 nM Fluormone GS1 tracer, 2h room temperature, read-out: GR binding ABS IC50. The protocol: Test compounds were diluted in DMSO over seven orders of magnitude, further diluted in assay buffer and distributed into 384-well plates. The sensitivity limit of this assay was 2-4 nM.
Data were processed by sigmoidal curve fitting.
Absolute (Abs) IC50 and Emax were determined from the curve fits.
Background: In fluorescence polarisation assays a small probe gives low polarisation when free and higher when bound to something large.

The test system of data set [3] is TNF alpha release from human PBMCs. The data set can be described thus: Inhibition of TNF alpha release from human PBMCs. Format: cell-based. The note with it: LPS 1 μg/ml, 18 hours, AlphaLISA. The method, boiled down:
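Fresh or thawed PBMCs in serum-free medium with 0.5% HSA, stimulated with 1 μg/ml LPS plus titrated compound for 18 h at 37° C. TNF-a in supernatant by AlphaLISA; window set with a reference PDE4 inhibitor at 100×IC50. EC50 and Emax from sigmoidal fits.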
Background: Alpha assays give light when donor and acceptor beads are brought close together.

The structures appear in SMILES notation.

Broadly, the IC50 is the concentration that inhibits the measured activity by half. In general, EC50 refers to the midpoint of the concentration-response curve. Lower therefore signals a more potent agent.

For the compound `C[C@H](NC(=O)c1ccon1)[C@H](Oc1ccc(C(=O)O[C@H]2CCCN(C(=O)[C@H]3COC(=O)C3)C2)cc1)c1ccc(C2CC2)cc1` [Compound 51, [(3S)-1-[(3R)-5-oxotetrahydrofuran-3-carbonyl]-3-piperidyl] 4-[(1R,2S)-1-(4-cyclopropylphenyl)-2-(isoxazole-3-carbonylamino)propoxy]benzoate], the “HLM assay Eh (%)” value in data set [1] was “* (extraction ratio (Eh)>90%)”. In addition, the IC50 in data set [2] is under 100 nM. The 50% effective concentration (EC50) in data set [3] (PBMC) is under 100 nM.
For the compound `C[C@H](NC(=O)c1csnn1)[C@H](Oc1ccc(C(=O)O[C@H]2CCCN(C(=O)[C@H]3COC(=O)C3)C2)cc1)c1ccc(C2CC2)cc1` [Compound 52, [(3S)-1-[(3R)-5-oxotetrahydrofuran-3-carbonyl]-3-piperidyl] 4-[(1R,2S)-1-(4-cyclopropylphenyl)-2-(thiadiazole-4-carbonylamino)propoxy]benzoate], the “HLM assay Eh (%)” value in data set [1] is “* (extraction ratio (Eh)>90%)”. Further, the half-inhibitory concentration (IC50) in data set [2] was under 100 nM. In data set [3], this compound came in with a concentration for a half-maximal effect (EC50) of under 100 nM.
For the compound `Cc1cc(C(=O)N[C@@H](C)[C@H](Oc2ccc(C(=O)O[C@H]3CCCN(C(=O)[C@H]4COC(=O)C4)C3)cc2)c2ccc(C3CC3)cc2)no1` [Compound 53, [(3S)-1-[(3R)-5-oxotetrahydrofuran-3-carbonyl]-3-piperidyl] 4-[(1R,2S)-1-(4-cyclopropylphenyl)-2-[(5-methylisoxazole-3-carbonyl)amino]propoxy]benzoate], the “HLM assay Eh (%)” value in data set [1] is on record as “* (extraction ratio (Eh)>90%)”. Moreover, in data set [2], the IC50 was under 100 nM. This compound also yielded a concentration giving a half-maximal response (EC50) in data set [3] (PBMC) of under 100 nM.
Regarding `C[C@H](NC(=O)c1ccno1)[C@H](Oc1ccc(C(=O)O[C@H]2CCCN(C(=O)[C@H]3COC(=O)C3)C2)cc1)c1ccc(C2CC2)cc1` [Compound 54, [(3S)-1-[(3R)-5-oxotetrahydrofuran-3-carbonyl]-3-piperidyl] 4-[(1R,2S)-1-(4-cyclopropylphenyl)-2-(isoxazole-5-carbonylamino)propoxy]benzoate], the “HLM assay Eh (%)” value in data set [1] is listed as “* (extraction ratio (Eh)>90%)”. Besides, the half-inhibitory concentration (IC50) in data set [2] is under 100 nM. In addition, the EC50 in data set [3] (PBMC) is under 100 nM.
In the case of `C[C@H](NC(=O)c1cscn1)[C@H](Oc1ccc(C(=O)O[C@H]2CCCN(C(=O)[C@H]3COC(=O)C3)C2)cc1)c1ccc(C2CC2)cc1` [Compound 55, [(3S)-1-[(3R)-5-oxotetrahydrofuran-3-carbonyl]-3-piperidyl] 4-[(1R,2S)-1-(4-cyclopropylphenyl)-2-(thiazole-4-carbonylamino)propoxy]benzoate], the “HLM assay Eh (%)” value in data set [1] is on record as “* (extraction ratio (Eh)>90%)”. In addition, the IC50 in data set [2] is under 100 nM. The compound also yielded a half-maximal effective concentration (EC50) in data set [3] (PBMC) of under 100 nM.
On to `Cc1noc(C(=O)N[C@@H](C)[C@H](Oc2ccc(C(=O)O[C@H]3CCCN(C(=O)[C@H]4COC(=O)C4)C3)cc2)c2ccc(C3CC3)cc2)n1` [Compound 56, [(3S)-1-[(3R)-5-oxotetrahydrofuran-3-carbonyl]-3-piperidyl] 4-[(1R,2S)-1-(4-cyclopropylphenyl)-2-[(3-methyl-1,2,4-oxadiazole-5-carbonyl)amino]propoxy]benzoate], for which the “HLM assay Eh (%)” value in data set [1] was “* (extraction ratio (Eh)>90%)”. In addition, in data set [2], the IC50 was under 100 nM. For the same compound, the concentration giving a half-maximal response (EC50) in data set [3] (PBMC) was under 100 nM.
Turning to `C[C@H](NC(=O)c1ccn(C)n1)[C@H](Oc1ccc(C(=O)O[C@H]2CCCN(C(=O)[C@H]3COC(=O)C3)C2)cc1)c1ccc(C2CC2)cc1` [Compound 57, [(3S)-1-[(3R)-5-oxotetrahydrofuran-3-carbonyl]-3-piperidyl] 4-[(1R,2S)-1-(4-cyclopropylphenyl)-2-[(1-methylpyrazole-3-carbonyl)amino]propoxy]benzoate], the “HLM assay Eh (%)” value in data set [1] is “* (extraction ratio (Eh)>90%)”. The IC50 in data set [2] was under 100 nM. The concentration giving a half-maximal response (EC50) in data set [3] (PBMC) is under 100 nM.
Consider `C[C@H](NC(=O)C(C)(F)F)[C@H](Oc1ccc(C(=O)O[C@H]2CCCN(C(=O)[C@H]3COC(=O)C3)C2)cc1)c1ccc(C2CC2)cc1` [Compound 58, [(3S)-1-[(3R)-5-oxotetrahydrofuran-3-carbonyl]-3-piperidyl] 4-[(1R,2S)-1-(4-cyclopropylphenyl)-2-(2,2-difluoropropanoylamino)propoxy]benzoate], for which the “HLM assay Eh (%)” value in data set [1] is “* (extraction ratio (Eh)>90%)”. Moreover, in data set [2], the half-inhibitory concentration (IC50) was under 100 nM. The EC50 in data set [3] (PBMC) was under 100 nM.
`CCc1ccc([C@@H](Oc2ccc(C(=O)N[C@H]3CCCN(C(=O)[C@H]4COC(=O)C4)C3)nc2)[C@H](C)NC(=O)C(F)(F)F)cc1` [Compound 66, 5-[(1R,2S)-1-(4-ethylphenyl)-2-[(2,2,2-trifluoroacetyl)amino]propoxy]-N-[(3S)-1-[(3R)-5-oxotetrahydrofuran-3-carbonyl]-3-piperidyl]pyridine-2-carboxamide]: the “HLM assay Eh (%)” value in data set [1] is “* (extraction ratio (Eh)>90%)”. Moreover, the 50% inhibitory concentration (IC50) in data set [2] was under 100 nM. This compound also yielded an EC50 in data set [3] (PBMC) of under 100 nM.
